Consider five molecules from patent US20100317698A1, “Polysubstituted Pyridinylaminoalkylene- and Pyridinyloxyalkylene-Cyclopropanamine Compounds, a Process for Their Preparation and Pharmaceutical Compositions Containing Them” (LES LABORATOIRES SERVIER, priority 2006, published 2010).

The target of data set [1] is T1, type α4β2 central nicotinic receptors (Rattus norvegicus, UniProt P09483+P12390).
T1 construct: from tissue; host or cells: rat brain membranes
The data set can be described thus: Displacement of binding of [3H]-cytisine to type α4β2 nicotinic receptors of rat brain. The conditions noted are these: rat brain membranes, read-out: Affinity (Ki, nM) for type α4β2 receptors. The procedure:
This study, carried out according to the technique described in Molec. Pharmacol., 1990, 39; 9-12, is aimed at determining the affinity of compounds of the present invention for type […] central nicotinic receptors.
Membranes (250 μg/ml) of rat brain are incubated (2 hours, 20° C.) in the presence of a series of concentrations (0.01-10 μM) of each compound of the present invention (diluted starting from a 10 mM stock solution in DMSO) and [^3H]-cytisine (S.A.: 1184 GBq/mmol: 2 nM) in phosphate buffer (NaH2PO4 20 mM, pH 7.4); final volume: 250 μl. The non-specific binding is determined by incubating membranes in the presence of 10 μM of (−)nicotine. The affinity of the compounds of the present invention for type α4β2 central nicotinic receptors is characterised by determination of the Ki.

The subject of data set [2] is cortical release of acetylcholine. Put plainly: In vivo measurement of the release of acetylcholine by intra-cortical microdialysis in the conscious Wistar rat. The conditions noted are these: 10 mg/kg IP, median prefrontal cortex. As to the method:
The systemic administration of nicotine and nicotinic agonists causes an increase, in vivo, of acetylcholine in various regions of the brain (Neurochem. Res., 1996, 21, 1181-1186; Eur. J. Pharmacol., 1998, 351, 181-188; Br. J. Pharmacol., 1999, 127, 1486-1494). A microdialysis probe is implanted in the median prefrontal cortex of male Wistar rats. Six or seven days after they have been implanted, the probes are perfused with Ringer's solution (NaCl 147 mM, KCl 2.7 mM, CaCl2 1.2 mM, MgCl2 1 mM, neostigmine 20 nM) at a flow rate of 1 μl/min, the animal being free to move. After 2 hours in the animal quarters, the product under test is administered by the intraperitoneal route. A group of control animals receives the solvent used for the product. The dialysates (30 μl) are then collected every 30 minutes for 4 hours in order to measure the extra-synaptic cortical concentrations of acetylcholine by means of HPLC with amperometric detection. The results are expressed in pg of acetylcholine/dialysate, and inter-group comparisons are carried out by means of variance analysis, using 2 factors (treatment×time), with measurements being repeated over time.

A further data set deals with NMRI mouse. The data set can be described thus: Abdominal contractions induced by phenyl-p-benzoquinone (PBQ) in the NMRI mouse. The data set is classed as in vivo. The conditions noted are these: 10 mg/kg IP. The procedure:
Intraperitoneal administration of an alcoholic solution of PBQ causes abdominal cramps in the mouse (Proc. Soc. Exp. Biol., 1957, 95, 729-731). The cramps are characterised by repeated contractions of the abdominal musculature, accompanied by extension of the hind limbs. Most analgesics antagonise these abdominal cramps (Brit. J. Pharmacol. Chem., 1968, 32, 295-310). At t=0 min., the animals are weighed and the compound being studied is administered by the IP route. A group of control animals is given the solvent used for the compound. At t=30 min., an alcoholic solution of PBQ (0.2%) is administered by the IP route in a volume of 0.25 ml/mouse. Immediately after administration of the PBQ, the animals are placed in cylinders of plexiglass (L=19.5 cm; I.D.=5 cm). From t=35 min. to t=45 min., the animals' reaction is observed and the experimenter notes the total number of abdominal cramps per animal. The results are expressed as the percentage inhibition of the number of abdominal cramps measured in the control animals at the active dose of the compound studied.

T1 sequence (P09483 31-630): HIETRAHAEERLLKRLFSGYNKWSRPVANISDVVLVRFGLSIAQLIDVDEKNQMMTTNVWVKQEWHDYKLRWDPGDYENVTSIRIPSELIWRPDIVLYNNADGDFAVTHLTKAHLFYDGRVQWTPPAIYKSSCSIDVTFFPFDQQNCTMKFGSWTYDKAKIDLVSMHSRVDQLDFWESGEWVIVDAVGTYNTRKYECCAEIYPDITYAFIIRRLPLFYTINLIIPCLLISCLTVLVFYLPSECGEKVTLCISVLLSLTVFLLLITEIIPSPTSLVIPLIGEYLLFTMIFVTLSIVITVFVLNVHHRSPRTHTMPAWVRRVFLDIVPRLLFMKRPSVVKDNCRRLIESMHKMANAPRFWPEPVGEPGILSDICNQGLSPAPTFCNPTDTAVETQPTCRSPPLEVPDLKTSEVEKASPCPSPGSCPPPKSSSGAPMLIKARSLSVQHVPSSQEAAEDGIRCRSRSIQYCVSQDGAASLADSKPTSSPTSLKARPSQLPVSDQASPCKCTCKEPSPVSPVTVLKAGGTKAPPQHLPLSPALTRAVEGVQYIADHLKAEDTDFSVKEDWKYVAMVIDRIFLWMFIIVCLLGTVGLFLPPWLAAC
T1 sequence (P12390 25-500): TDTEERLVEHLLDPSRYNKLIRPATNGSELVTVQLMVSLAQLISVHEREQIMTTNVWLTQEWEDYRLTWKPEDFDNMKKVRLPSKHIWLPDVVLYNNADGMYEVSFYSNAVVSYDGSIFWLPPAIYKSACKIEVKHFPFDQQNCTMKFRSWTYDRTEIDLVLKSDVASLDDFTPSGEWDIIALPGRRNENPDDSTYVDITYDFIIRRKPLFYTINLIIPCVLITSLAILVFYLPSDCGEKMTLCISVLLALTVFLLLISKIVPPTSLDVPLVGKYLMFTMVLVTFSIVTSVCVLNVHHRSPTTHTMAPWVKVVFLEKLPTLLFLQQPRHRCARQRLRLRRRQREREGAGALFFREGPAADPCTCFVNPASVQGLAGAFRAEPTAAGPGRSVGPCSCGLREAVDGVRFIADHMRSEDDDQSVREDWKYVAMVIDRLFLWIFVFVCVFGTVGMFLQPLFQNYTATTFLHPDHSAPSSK

`CNC1(COc2cncc(-c3ccc(C)cc3)c2)CC1.Cl.Cl` [Example 2, Methyl[1-({[5-(4-methylphenyl)pyridin-3-yl]oxy}methyl)cyclopropyl]amine dihydrochloride] showed a melting point of 218 to 223 °C. The Ki in data set [1] amounted to 8.5 nM.

In turn, `CNC1(COc2cnc(Cl)c(-c3ccc(C#N)cc3)c2)CC1.Cl` [Example 18, 4-(2-Chloro-5-{[1-(methylamino)cyclopropyl]methoxy}pyridin-3-yl)benzonitrile hydrochloride] registered a melting point of 215 to 220 °C. The “increase of the release of acetylcholine” value in data set [2] is “+104%”.

With `CNC1(COc2cnc(C)c(-c3ccncc3)c2)CC1.Cl.Cl.Cl` [Example 81, Methyl(1-{[(2-methyl-3,4′-bipyridin-5-yl)oxy]methyl}cyclopropyl)amine trihydrochloride], the melting point was in the range of 130 to 138 °C. Also, the “inhibition of the number of abdominal cramps versus control animals” value with NMRI mouse is −90%.

Turning to `CNC1(CNc2cnc(Cl)c(-c3ccncc3)c2)CC1.Cl.Cl` [Example 106, 2-Chloro-N-{[1-(methylamino)cyclopropyl]methyl}-3,4′-bipyridin-5-amine dihydrochloride], the melting point was in the range of 100 to 110 °C. Also, in the data set with NMRI mouse, the “inhibition of the number of abdominal cramps versus control animals” value is −87%.

For the molecule “[1-({[5-(3-Methoxyphenyl)pyridin-3-yl]oxy}methyl)cyclopropyl]methylamine dihydrochloride [Example 1]”, the Ki in data set [1] amounted to 7.9 nM. Moreover, the “increase of the release of acetylcholine” value in data set [2] is on record as “+72%”.

One may read the Ki as a dissociation constant, usually derived from enzyme kinetics or from competition with a known ligand. As a reminder, the melting point is the temperature of the solid-liquid transition.
